According to patent publication US20240317721A1, “PYRAZOLYL DERIVATIVES AS INHIBITORS OF THE KRAS MUTANT PROTEIN” (NOVARTIS AG, priority 2021, published 2024):

Target: KRasG12C (M1-K169, biotinylated on the N-terminus) (Homo sapiens (Human), UniProt P01116, G12C)
Assay: Covalent competition assay: scintillation proximity assay (SPA) quantifying covalent modification of KRASG12C
Format: binding
Conditions: competition with radiolabeled covalent probe (Compound B/Compound A), 2 hours incubation, 10 nM KRasG12C
Method in brief: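 Test compounds compete with a radiolabeled covalent probe for modification of N-terminally biotinylated KRasG12C(M1-K169):GDP, final 10 nM protein, 25 nM radio-ligand, 475 nM unlabelled ligand, 2 h with agitation in 20 mM Tris-HCl pH 7.5, 150 mM NaCl, 0.1 mM MgCl2, 0.01% Tween-20.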

`C=CC(=O)N1CC2(CC(n3nc(N4CC5(CCOC5)C4)c(-c4c(Cl)c(Cl)cc5[nH]ncc45)c3C)C2)C1` (single isomer, unassigned) [Example 108a, 1-(6-(4-(5,6-dichloro-1H-indazol-4-yl)-5-methyl-3-(6-oxa-2-azaspiro[3.4]octan-2-yl)-1H-pyrazol-1-yl)-2-azaspiro[3.3]heptan-2-yl)prop-2-en-1-one] and `C=CC(=O)N1CC2(CC(n3nc(N4C5CCC4COC5)c(-c4c(Cl)c(C)cc5[nH]ncc45)c3C)C2)C1` (single isomer, unassigned) [Example 112a] cannot be ordered by IC50: over 5000 nM for the first, over 5000 nM for the second.

Compared with `C=CC(=O)N1CC2(CC(n3nc(N4CC5(CCOC5)C4)c(-c4c(Cl)c(Cl)cc5[nH]ncc45)c3C)C2)C1` (single isomer, unassigned) [Example 108b, 1-(6-(4-(5,6-dichloro-1H-indazol-4-yl)-5-methyl-3-(6-oxa-2-azaspiro[3.4]octan-2-yl)-1H-pyrazol-1-yl)-2-azaspiro[3.3]heptan-2-yl)prop-2-en-1-one], `C=CC(=O)N1CC2(CC(n3nc(N4C5CCC4COC5)c(-c4c(Cl)c(C)cc5[nH]ncc45)c3C)C2)C1` (single isomer, unassigned) [Example 112b] is 3.4-fold lower in IC50: 576 nM for the first, 171 nM for the second.

First: C=CC(=O)N1CC2(CC(n3nc(N4CCN(C[C@@H]5COCCO5)C[C@]4(C)CC)c(-c4c(Cl)c(C)cc5c4cnn5C)c3C)C2)C1 (single isomer, unassigned) [Example 109a]
Second: C=CC(=O)N1CC2(CC(n3nc(N4CCN(C[C@@H]5COCCO5)C[C@]4(C)COC)c(-c4c(Cl)c(C)cc5[nH]nc(N)c45)c3C)C2)C1 (single isomer, unassigned) [Example 118a]
The IC50 of the first is 22-fold higher: 334 nM for the first, 15 nM for the second.

`C=CC(=O)N1CC2(CC(n3nc(N4CCN(C[C@@H]5COCCO5)C[C@]4(C)CC)c(-c4c(Cl)c(C)cc5c4cnn5C)c3C)C2)C1` (single isomer, unassigned) [Example 109b] and `C=CC(=O)N1CC2(CC(n3nc(N4CC[C@@H](OCCN5CCOCC5)CC4(C)C)c(-c4c(Cl)c(Cl)cc5[nH]ncc45)c3C)C2)C1` (single isomer, unassigned) [Example 110a] cannot be ordered by IC50: over 5000 nM for the first, over 5000 nM for the second.

Going from `C=CC(=O)N1CC2(CC(n3nc(N4CC[C@@H](OCCN5CCOCC5)CC4(C)C)c(-c4c(Cl)c(Cl)cc5[nH]ncc45)c3C)C2)C1` (single isomer, unassigned) [Example 110b] to `Cc1cc2[nH]ncc2c(-c2c(N3CCN(C4COC4)CC34CCC4)nn(C3CC4(C3)CN(C(=O)/C=C/CF)C4)c2C)c1Cl` (single isomer, unassigned) [Example 113a, (E)-1-(6-(4-(5-chloro-6-methyl-1H-indazol-4-yl)-5-methyl-3-(8-(oxetan-3-yl)-5,8-diazaspiro[3.5]nonan-5-yl)-1H-pyrazol-1-yl)-2-azaspiro[3.3]heptan-2-yl)-4-fluorobut-2-en-1-one], the IC50 rises from 10 nM to over 5000 nM. The first is the more potent here.

Compared with `Cc1cc2[nH]ncc2c(-c2c(N3CCN(C4COC4)CC34CCC4)nn(C3CC4(C3)CN(C(=O)/C=C/CF)C4)c2C)c1Cl` (single isomer, unassigned) [Example 113b, (E)-1-(6-(4-(5-chloro-6-methyl-1H-indazol-4-yl)-5-methyl-3-(8-(oxetan-3-yl)-5,8-diazaspiro[3.5]nonan-5-yl)-1H-pyrazol-1-yl)-2-azaspiro[3.3]heptan-2-yl)-4-fluorobut-2-en-1-one], `C=CC(=O)N1CC2(CC(n3nc(N4CCN(C5COC5)CC45CCC5)c(-c4c(Cl)c(C)cc5[nH]nc(N)c45)c3C)C2)C1` (single isomer, unassigned) [Example 114a, 1-(6-(4-(3-amino-5-chloro-6-methyl-1H-indazol-4-yl)-5-methyl-3-(8-(oxetan-3-yl)-5,8-diazaspiro[3.5]nonan-5-yl)-1H-pyrazol-1-yl)-2-azaspiro[3.3]heptan-2-yl)prop-2-en-1-one] is 15-fold lower in IC50: 105 nM for the first, 7 nM for the second. The second is the more potent here.

First: C=CC(=O)N1CC2(CC(n3nc(N4CCN(C5COC5)CC45CCC5)c(-c4c(Cl)c(C)cc5[nH]nc(N)c45)c3C)C2)C1 (single isomer, unassigned) [Example 114b, 1-(6-(4-(3-amino-5-chloro-6-methyl-1H-indazol-4-yl)-5-methyl-3-(8-(oxetan-3-yl)-5,8-diazaspiro[3.5]nonan-5-yl)-1H-pyrazol-1-yl)-2-azaspiro[3.3]heptan-2-yl)prop-2-en-1-one]
Second: C=CC(=O)N1CC2(CC(n3nc(N4CCC(N(C)C5COC5)CC45CCC5)c(-c4c(Cl)c(C)cc5[nH]nc(N)c45)c3C)C2)C1 (single isomer, unassigned) [Example 115a, 1-(6-(4-(3-amino-5-chloro-6-methyl-1H-indazol-4-yl)-5-methyl-3-(8-(methyl(oxetan-3-yl)amino)-5-azaspiro[3.5]nonan-5-yl)-1H-pyrazol-1-yl)-2-azaspiro[3.3]heptan-2-yl)prop-2-en-1-one]
The IC50 of the first is 48-fold higher: 337 nM for the first, 7 nM for the second.

Compared with `C=CC(=O)N1CC2(CC(n3nc(N4CCC(N(C)C5COC5)CC45CCC5)c(-c4c(Cl)c(C)cc5[nH]nc(N)c45)c3C)C2)C1` (single isomer, unassigned) [Example 115b, 1-(6-(4-(3-amino-5-chloro-6-methyl-1H-indazol-4-yl)-5-methyl-3-(8-(methyl(oxetan-3-yl)amino)-5-azaspiro[3.5]nonan-5-yl)-1H-pyrazol-1-yl)-2-azaspiro[3.3]heptan-2-yl)prop-2-en-1-one], `C=CC(=O)N1CC2(CC(n3nc(N4CCN(CC(C)(C)O)CC45CCC5)c(-c4c(Cl)c(C)cc5[nH]nc(N)c45)c3C)C2)C1` (single isomer, unassigned) [Example 117a, 1-(6-(4-(3-amino-5-chloro-6-methyl-1H-indazol-4-yl)-3-(8-(2-hydroxy-2-methylpropyl)-5,8-diazaspiro[3.5]nonan-5-yl)-5-methyl-1H-pyrazol-1-yl)-2-azaspiro[3.3]heptan-2-yl)prop-2-en-1-one] is 27-fold lower in IC50: 246 nM for the first, 9 nM for the second.

Going from `C=CC(=O)N1CC2(CC(n3nc(N4CCC(N(C)C5COC5)CC45CCC5)c(-c4c(Cl)c(C)cc5[nH]nc(N)c45)c3C)C2)C1` (single isomer, unassigned) [Example 116a, 1-(6-(4-(3-amino-5-chloro-6-methyl-1H-indazol-4-yl)-5-methyl-3-(8-(methyl(oxetan-3-yl)amino)-5-azaspiro[3.5]nonan-5-yl)-1H-pyrazol-1-yl)-2-azaspiro[3.3]heptan-2-yl)prop-2-en-1-one] to `C=CC(=O)N1CC2(CC(n3nc(N4CCN(CC(C)(C)O)CC45CCC5)c(-c4c(Cl)c(C)cc5[nH]nc(N)c45)c3C)C2)C1` (single isomer, unassigned) [Example 117b, 1-(6-(4-(3-amino-5-chloro-6-methyl-1H-indazol-4-yl)-3-(8-(2-hydroxy-2-methylpropyl)-5,8-diazaspiro[3.5]nonan-5-yl)-5-methyl-1H-pyrazol-1-yl)-2-azaspiro[3.3]heptan-2-yl)prop-2-en-1-one], the IC50 rises from 205 nM to 1600 nM (7.8-fold). The first is the more potent here.

`C=CC(=O)N1CC2(CC(n3nc(N4CCC(N(C)C5COC5)CC45CCC5)c(-c4c(Cl)c(C)cc5[nH]nc(N)c45)c3C)C2)C1` (single isomer, unassigned) [Example 116b, 1-(6-(4-(3-amino-5-chloro-6-methyl-1H-indazol-4-yl)-5-methyl-3-(8-(methyl(oxetan-3-yl)amino)-5-azaspiro[3.5]nonan-5-yl)-1H-pyrazol-1-yl)-2-azaspiro[3.3]heptan-2-yl)prop-2-en-1-one] was tested, and the IC50 was 1900 nM.
